According to patent US10021861B2, “Genetically modified non-human animals and methods relating to innate immune system response detection” (The Jackson Laboratory, priority 2013, dated 2018):
Marks after values point to notes of the source that are not given here.

Tests used:
Assay type in all cases: in vivo
[1] = system: mouse innate immune cells; assay: CD40 and CD86 expression on mouse innate immune cells from spleen of NSG mice (flow cytometry); settings: 100 μg IP, 24 hours
Description: (§1) (San Jose, Calif.), eBiosciences (San Diego, Calif.) or BioLegend, (San Diego, Calif.). […] Single-cell suspensions of bone marrow (BM) and spleen were prepared from engrafted mice, and whole blood was collected in heparin. Single cell suspensions of 1×10^6 cells in 50 μL or 100 μL of whole blood were washed with FACS buffer (PBS supplemented with 2% fetal bovine serum, (HyClone, Logan, Utah) and 0.02% sodium azide (Sigma, St. Louis, Mo.)) and then pre-incubated with rat anti-mouse FcR11b (clone 2.4G2, BD Biosciences) to block Fc binding. Specific antibodies were then added to the samples and incubated for 30 min at 4° C. Stained samples were then washed and fixed with 2% paraformaldehyde for cell suspensions or treated with BD FACS lysing solution for whole blood. At least 50,000 events were acquired on LSRII or FACSCalibur instruments (BD Biosciences). Data analysis was performed with FlowJo (Tree Star, Inc., Ashland, Oreg.) software. Ultra Pure lipopolysaccharide (LPS, E. coli 0111:B4 strain), and polyinosinic-polycytidylic (poly(I:C), high molecular weight, HMW) were purchased from Invivogen (San Diego, Calif.). The indicated mice were injected intraperitoneally (IP) with 100 μg of either LPS or poly(I:C). To confirm that NSG-TLR4^null mice are unable to respond to TLR4 agonists, NSG and NSG-TLR4^null mice were treated with LPS and the ability of innate immune cells to increase expression of phenotypic markers (Table I) and produce cytokines (FIG. 2) was evaluated.

[2] = system: mouse innate immune cells; assay: CD40 and CD86 expression on mouse innate immune cells from spleen of NSG-TLR4^null mice (flow cytometry)
Description: as §1

[3] = system: mouse innate immune cells; assay: Mouse serum cytokines by cytometric bead array in NSG-TLR4^null mice (unmanipulated or HSC-engrafted); settings: in both NSG and NSG-TLR4^null mice, 100 μg IP, 24 hours
[4] = NSG-TLR4^null mice, 100 μg IP, 24 hours, spleen

polyinosinic-polycytidylic [poly(IC)]
CD40 Expression, CD11b+ Macrophage [1]: 3909 ± 377 | CD40 Expression, CD11c+/CD11b+ DC [1]: 6860 ± 1276^b | CD40 Expression, CD11c+/CD11b− DC [1]: 19935 ± 1020^b | CD86 Expression, CD11b+ Macrophage [1]: 68.27 ± 5.93 | CD86 Expression, CD11c+/CD11b+ DC [1]: 540.3 ± 40^b | CD86 Expression, CD11c+/CD11b− DC [1]: 1111 ± 141^c | CD40 Expression, CD11b+ Macrophage [2, 4]: 4168 ± 104 | CD40 Expression, CD11c+/CD11b+ DC [2, 4]: 5035 ± 3278^b | CD40 Expression, CD11c+/CD11b− DC [2, 4]: 16160 ± 3782^b | CD86 Expression, CD11b+ Macrophage [2, 4]: 77.77 ± 15.96 | CD86 Expression, CD11c+/CD11b+ DC [2, 4]: 635 ± 57.7^b | CD86 Expression, CD11c+/CD11b− DC [2, 4]: 1315 ± 82^b | induced increases in the expression of CD40 and CD86 on mouse innate immune cells ([2]; between NSG and NSG-TLR4^null mice): similar | mouse cytokine response [3]: similar
